Assay results taken from patent EP0411184B1, “Ascorbic acid derivative” (NIPPON HYPOX LABORATORIES INCORPORATED, priority 1989, dated 1991).

Test: Antioxidant action using stable radicals: reduction activity of DPPH (M. S. Blois method)
Assay type: biochemical
Details: 0.1 mM DPPH solution in ethanol, absorbance at 517 nm after 20 minutes, difference from solvent control (0.5% or less DMF); read-out: 50% radical eliminating concentration
Procedure: Test example 1 (Antioxidant action examined by using stable radicals)
Reduction activity of α,α-diphenyl-β-picrylhydrazyl (DPPH) which was a stable free radical was examined according to the M. S. Blois method (Nature, vol. 181, page 1199, 1958) and used as an index to antioxidant action. Thus, specimens were added to 3 mℓ of a 0.1 mM DPPH solution in ethanol, and absorbance at a wavelength of 517 nm was measured using a spectrophotometer after 20 minutes. The difference in absorbance from the solvent control [0.5% or less of dimethylformamide (DMF)] was taken as the reduction activity.

Compound	IC50 [µM]
CCCCOC(=O)COC1=C(O)C(=O)O[C@@H]1[C@@H](O)CO [compound 109]	18
CCOC(=O)CCCOC1=C(O)C(=O)O[C@@H]1[C@@H](O)CO [compound 106]	21
CC(=O)COC1=C(O)C(=O)O[C@@H]1[C@@H](O)CO [compound 115]	22
CCOC(=O)C(C)OC1=C(O)C(=O)O[C@@H]1[C@@H](O)CO (stereo partly drawn) [compound 108]	19
O=C1O[C@H]([C@@H](O)CO)C(OCC(=O)c2ccccc2)=C1O [compound 112, L-3-O-benzoylmethylascorbic acid]	23
O=C(O)CCCCCCCCCCOC1=C(O)C(=O)O[C@@H]1[C@@H](O)CO [compound 114]	24
O=C1O[C@H]([C@@H](O)CO)C(OCc2cccnc2)=C1O [compound 113, L-3-O-(3-picoyl)ascorbic acid]	23
O=C(O)CCCOC1=C(O)C(=O)O[C@@H]1[C@@H](O)CO [compound 107]	27
CCOC(=O)COC1=C(O)C(=O)O[C@@H]1[C@@H](O)CO [compound 111]	22
CCCCCCCCOC1=C(O)C(=O)O[C@@H]1[C@@H](O)CO [compound 103]	19
CCCCCCCCCCCCOC1=C(O)C(=O)O[C@@H]1[C@@H](O)CO [compound 102]	18
CCCCCCCCCCOC(=O)COC1=C(O)C(=O)O[C@@H]1[C@@H](O)CO [compound 110]	23
CCOC(=O)CCCCOC1=C(O)C(=O)O[C@@H]1[C@@H](O)CO [compound 105]	20
CCCCOC1=C(O)C(=O)O[C@@H]1[C@@H](O)CO [compound 104]	23
CCCCCCCCCCCCCCCCCCOC1=C(O)C(=O)O[C@@H]1[C@@H](O)CO [compound 101, reference compound]	32
